Data: US10316028B2, “Orexin receptor antagonists” (Heptares Therapeutics Limited, priority 2012, dated 2019)

Target: T1, human Orexin-2 receptor (Homo sapiens, UniProt O43614)
T1 construct: expressed in transfected cells; host or cells: HEK293 cells (transient transfection, Genejuice); membranes
T1 sequence (O43614 1-444): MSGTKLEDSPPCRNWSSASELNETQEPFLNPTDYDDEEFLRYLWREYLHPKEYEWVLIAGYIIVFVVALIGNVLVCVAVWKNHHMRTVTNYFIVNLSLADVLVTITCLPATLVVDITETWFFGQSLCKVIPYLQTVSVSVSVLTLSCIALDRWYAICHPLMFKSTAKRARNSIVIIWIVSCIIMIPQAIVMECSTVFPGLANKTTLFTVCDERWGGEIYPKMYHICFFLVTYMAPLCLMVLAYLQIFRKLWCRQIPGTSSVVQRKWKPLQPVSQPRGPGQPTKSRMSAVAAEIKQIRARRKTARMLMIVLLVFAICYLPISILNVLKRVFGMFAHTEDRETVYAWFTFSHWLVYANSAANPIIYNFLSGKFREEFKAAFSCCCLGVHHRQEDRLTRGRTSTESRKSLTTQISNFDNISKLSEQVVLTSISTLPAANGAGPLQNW
Assay: 3H-EMPA radioligand binding assay
Settings: 3H-EMPA displacement, membranes of HEK293 cells transfected with human Orexin-2 receptor; KI by Cheng-Prussoff; read-out: OX2 pKi ave (converted)
In short: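 Membranes from HEK293 cells transiently transfected with human orexin-2 receptor cDNA, assayed with [3H]EMPA. Bound ligand collected on PEI-treated GF/B filters and counted by scintillation; IC50 from inhibition curves, Ki by Cheng-Prusoff.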

Ki [nM]	SMILES
1.38	COc1cc(F)c(CN2C(=O)N(c3cc(OC)nc(OC)c3)S(=O)(=O)c3cccnc32)c(F)c1 [Example 163, 4-(2,6-Difluoro-4-methoxybenzyl)-2-(2,6-dimethoxypyridin-4-yl)-2H-pyrido[2,3-e][1,2,4]thiadiazin-3(4H)-one 1,1-dioxide]
0.676	COc1cc(F)c(CN2C(=O)N(c3cnc(OC)c(OC)c3)S(=O)(=O)c3cccnc32)c(F)c1 [Example 165, 4-(2,6-Difluoro-4-methoxybenzyl)-2-(5,6-dimethoxypyridin-3-yl)-2H-pyrido[2,3-e][1,2,4]thiadiazin-3(4H)-one 1,1-dioxide]
1.78	COc1cc(F)c(CN2C(=O)N(c3cnc(OC)c(C)c3)S(=O)(=O)c3ccccc32)c(F)c1 [Example 171, 4-(2,6-difluoro-4-methoxybenzyl)-2-(6-methoxy-5-methylpyridin-3-yl)-2H-1,2,4-benzothiadiazin-3(4H)-one 1,1-dioxide]
2.4	COc1cc(F)c(CN2C(=O)N(c3ccc(C)c(C)n3)S(=O)(=O)c3cccnc32)c(F)c1 [Example 173, 4-(2,6-Difluoro-4-methoxybenzyl)-2-(5,6-dimethylpyridin-2-yl)-2H-pyrido[2,3-e][1,2,4]thiadiazin-3(4H)-one 1,1-dioxide]
7.24	COc1cc(F)c(CN2C(=O)N(c3cc(C)cc(C)n3)S(=O)(=O)c3cccnc32)c(F)c1 [Example 174, 4-(2,6-Difluoro-4-methoxybenzyl)-2-(4,6-dimethylpyridin-2-yl)-2H-pyrido[2,3-e][1,2,4]thiadiazin-3(4H)-one 1,1-dioxide]
1.35	COc1cc(F)c(CN2C(=O)N(c3ccc(C)c(OC)n3)S(=O)(=O)c3cccnc32)c(F)c1 [Example 175, 4-(2,6-Difluoro-4-methoxybenzyl)-2-(6-methoxy-5-methylpyridin-2-yl)-2H-pyrido[2,3-e][1,2,4]thiadiazin-3(4H)-one 1,1-dioxide]
6.46	COc1cc(N2C(=O)N(Cc3c(F)cc(F)cc3F)c3ncccc3S2(=O)=O)cnc1C [Example 176, 2-(5-Methoxy-6-methylpyridin-3-yl)-4-(2,4,6-trifluorobenzyl)-2H-pyrido[2,3-e][1,2,4]thiadiazin-3(4H)-one 1,1-dioxide]
2.19	CNc1ncc(N2C(=O)N(Cc3c(F)cc(OC)cc3F)c3ncccc3S2(=O)=O)cc1OC [Example 177, 2-[5-Methoxy-6-(methylamino)pyridin-3-yl]-4-(2,6-difluoro-4-methoxybenzyl)-2H-pyrido[2,3-e][1,2,4]thiadiazin-3(4H)-one 1,1-dioxide]
4.37	COc1cc(F)c(CN2C(=O)N(c3cnc(C)c(C)c3)S(=O)(=O)c3ccccc32)c(F)c1 [Example 178, 4-(2,6-difluoro-4-methoxybenzyl)-2-(5,6-dimethylpyridin-3-yl)-2H-1,2,4-benzothiadiazin-3(4H)-one 1,1-dioxide]
1.62	CNc1cc(N2C(=O)N(Cc3c(F)cc(OC)cc3F)c3ccccc3S2(=O)=O)cnc1OC [Example 181, 4-(2,6-difluoro-4-methoxybenzyl)-2-[6-methoxy-5-(methylamino)pyridin-3-yl]-2H-1,2,4-benzothiadiazin-3(4H)-one 1,1-dioxide]
4.47	COc1cc(F)c(CN2C(=O)N(c3ccc4ncsc4c3)S(=O)(=O)c3cccnc32)c(F)c1 [Example 182, 2-(1,3-Benzothiazol-6-yl)-4-(2,6-difluoro-4-methoxybenzyl)-2H-pyrido[2,3-e][1,2,4]thiadiazin-3(4H)-one 1,1-dioxide]
8.51	CNc1ncc(N2C(=O)N(Cc3c(F)cc(OC)cc3F)c3ncccc3S2(=O)=O)cc1C [Example 184, 4-(2,6-Difluoro-4-methoxybenzyl)-2-[5-methyl-6-(methylamino)pyridin-3-yl]-2H-pyrido[2,3-e][1,2,4]thiadiazin-3(4H)-one 1,1-dioxide]
1.26	CNc1cc(N2C(=O)N(Cc3c(F)cc(OC)cc3F)c3ncccc3S2(=O)=O)cnc1OC [Example 186, 4-(2,6-Difluoro-4-methoxybenzyl)-2-[6-methoxy-5-(methylamino)pyridin-3-yl]-2H-pyrido[2,3-e][1,2,4]thiadiazin-3(4H)-one 1,1-dioxide]

The next lines start with the molecule.

SMILES	Ki [nM]
COc1cc(N2C(=O)N(Cc3c(F)cc(F)cc3Cl)c3ccccc3S2(=O)=O)cc(OC)n1 [Example 157, 4-(2-Chloro-4,6-difluorobenzyl)-2-(2,6-dimethoxypyridin-4-yl)-2H-1,2,4-benzothiadiazin-3(4H)-one 1,1-dioxide]	0.575
CN(C)c1cccc(N2C(=O)N(Cc3c(F)cc(F)cc3F)c3ccccc3S2(=O)=O)n1 [Example 158, 2-[6-(Dimethylamino)pyridin-2-yl]-4-(2,4,6-trifluorobenzyl)-2H-1,2,4-benzothiadiazin-3(4H)-one 1,1-dioxide]	3.39
CN(C)c1cc(N2C(=O)N(Cc3c(F)cc(F)cc3F)c3ccccc3S2(=O)=O)ccn1 [Example 159, 2-[2-(Dimethylamino)pyridin-4-yl]-4-(2,4,6-trifluorobenzyl)-2H-1,2,4-benzothiadiazin-3(4H)-one 1,1-dioxide]	3.09
CSc1ccc(N2C(=O)N(Cc3c(F)cc(F)cc3F)c3ccccc3S2(=O)=O)cn1 [Example 160, 2-[6-(Methylsulfanyl)pyridin-3-yl]-4-(2,4,6-trifluorobenzyl)-2H-1,2,4-benzothiadiazin-3(4H)-one 1,1-dioxide]	17.4
COc1ccc(N2C(=O)N(Cc3c(F)cc(F)cc3Cl)c3ccccc3S2(=O)=O)nc1OC [Example 161, 4-(2-Chloro-4,6-difluorobenzyl)-2-(5,6-dimethoxypyridin-2-yl)-2H-1,2,4-benzothiadiazin-3(4H)-one 1,1-dioxide]	1.26
COc1cc(N2C(=O)N(Cc3ncc(F)cc3C)c3ccccc3S2(=O)=O)cc(OC)n1 [Example 162, 2-(2,6-Dimethoxypyridin-4-yl)-4-[(5-fluoro-3-methylpyridin-2-yl)methyl]-2H-1,2,4-benzothiadiazin-3(4H)-one 1,1-dioxide]	18.6
COc1cc(F)c(CN2C(=O)N(c3ccc(OC)c(OC)n3)S(=O)(=O)c3cccnc32)c(F)c1 [Example 164, 4-(2,6-Difluoro-4-methoxybenzyl)-2-(5,6-dimethoxypyridin-2-yl)-2H-pyrido[2,3-e][1,2,4]thiadiazin-3(4H)-one 1,1-dioxide]	0.661
COc1cc(N2C(=O)N(Cc3c(F)cccc3Cl)c3ccccc3S2(=O)=O)cc(OC)n1 [Example 166, 4-(2-Chloro-6-fluorobenzyl)-2-(2,6-dimethoxypyridin-4-yl)-2H-1,2,4-benzothiadiazin-3(4H)-one 1,1-dioxide]	2.69
COc1cc(N2C(=O)N(Cc3c(F)cccc3F)c3ccccc3S2(=O)=O)cc(OC)n1 [Example 167, 4-(2,6-Difluorobenzyl)-2-(2,6-dimethoxypyridin-4-yl)-2H-1,2,4-benzothiadiazin-3(4H)-one 1,1-dioxide]	2.19
COc1ccc(N2C(=O)N(Cc3c(F)cccc3Cl)c3ncccc3S2(=O)=O)nc1OC [Example 168, 4-(2-Chloro-6-fluorobenzyl)-2-(5,6-dimethoxypyridin-2-yl)-2H-pyrido[2,3-e][1,2,4]thiadiazin-3(4H)-one 1,1-dioxide]	1.23
COc1ccc(N2C(=O)N(Cc3c(F)cccc3F)c3ncccc3S2(=O)=O)nc1OC [Example 169, 4-(2,-Difluorobenzyl)-2-(5,6-dimethoxypyridin-2-yl)-2H-pyrido[2,3-e][1,2,4]thiadiazin-3(4H)-one 1,1-dioxide]	0.851
COc1cnc(N2C(=O)N(Cc3c(F)cc(F)cc3F)c3ccccc3S2(=O)=O)nc1OC [Example 170, 2-(4,5-dimethoxypyrimidin-2-yl)-4-(2,4,6-trifluorobenzyl)-2H-1,2,4-benzothiadiazin-3(4H)-one 1,1-dioxide]	7.24
CNc1ccc(N2C(=O)N(Cc3c(F)cc(F)cc3F)c3ncccc3S2(=O)=O)nc1OC [Example 172, 2-[6-methoxy-5-(methylamino)pyridin-2-yl]-4-(2,4,6-trifluorobenzyl)-2H-pyrido[2,3-e][1,2,4]thiadiazin-3(4H)-one 1,1-dioxide]	7.76
CNc1nc(N2C(=O)N(Cc3c(F)cc(OC)cc3F)c3ccccc3S2(=O)=O)ccc1OC [Example 179, 4-(2,6-difluoro-4-methoxybenzyl)-2-[5-methoxy-6-(methylamino)pyridin-2-yl]-2H-1,2,4-benzothiadiazin-3(4H)-one 1,1-dioxide]	3.72
COc1cc(N2C(=O)N(Cc3c(F)cc(F)cc3Cl)c3ncccc3S2(=O)=O)cc(OC)n1 [Example 180, 4-(2-Chloro-4,6-difluorobenzyl)-2-(2,6-dimethoxypyridin-4-yl)-2H-pyrido[2,3-e][1,2,4]thiadiazin-3(4H)-one 1,1-dioxide]	2.04
COc1cc(OC)nc(N2C(=O)N(Cc3c(F)cc(OC)cc3F)c3ccccc3S2(=O)=O)c1 [Example 183, 4-(2,6-difluoro-4-methoxybenzyl)-2-(4,6-dimethoxypyridin-2-yl)-2H-1,2,4-benzothiadiazin-3(4H)-one 1,1-dioxide]	2.75
COc1cc(N2C(=O)N(Cc3c(F)cc(F)cc3Cl)c3ncccc3S2(=O)=O)cnc1OC [Example 185, 4-(2-Chloro-4,6-difluorobenzyl)-2-(5,6-dimethoxypyridin-3-yl)-2H-pyrido[2,3-e][1,2,4]thiadiazin-3(4H)-one 1,1-dioxide]	4.17
